Test results reported in ChEMBL document CHEMBL5729418, “Compounds and methods useful in the treatment of a PRMT5-mediated disorder” (2022).

Molecular target: PRMT5/MEP50 complex (Homo sapiens, UniProt O14744)
Experiment: Chemiluminescent Assay: A PRMT5 chemiluminescent assay was used to measure the IC50 activity of PRMT5 of the compounds of Examples 1A to 7 above. Biotinylated histone peptides were synthesized and attached to 384-well plates. Compound serial dilutions were performed and added to the assay plate. Histone H4 monomethyl R3 antibody was obtained from Abcam. A master mix for each well was prepared and human PRMT5/MEP50 (expressed in HEK293 cells) diluted in assay buffer to a concentration of 5 ng/μL. The reaction was incubated and slowly rotated for 60 minutes at the point of PRMT5/MEP50 addition. The supernatant from the wells was removed and blocking buffer was added to each well and rotated for 10 minutes. The primary antibody was diluted and added to every well for 60 minutes, before it was removed and the wells washed. The horse raddish peroxidase (HRP)-coupled secondary antibody was diluted and added to each well with an incubation time of 30 minutes. The HRP chemiluminescent substrate was added to every well. The plate was read on a Flourstar Omega BMG Labtech instrument (Ortenberg, Germany) and the analysis of IC50 was performed using the Flourstar Omega BMG Labtech software.
Assay type: cell-based

Sequence of PRMT5/MEP50 complex (O14744 whole entry): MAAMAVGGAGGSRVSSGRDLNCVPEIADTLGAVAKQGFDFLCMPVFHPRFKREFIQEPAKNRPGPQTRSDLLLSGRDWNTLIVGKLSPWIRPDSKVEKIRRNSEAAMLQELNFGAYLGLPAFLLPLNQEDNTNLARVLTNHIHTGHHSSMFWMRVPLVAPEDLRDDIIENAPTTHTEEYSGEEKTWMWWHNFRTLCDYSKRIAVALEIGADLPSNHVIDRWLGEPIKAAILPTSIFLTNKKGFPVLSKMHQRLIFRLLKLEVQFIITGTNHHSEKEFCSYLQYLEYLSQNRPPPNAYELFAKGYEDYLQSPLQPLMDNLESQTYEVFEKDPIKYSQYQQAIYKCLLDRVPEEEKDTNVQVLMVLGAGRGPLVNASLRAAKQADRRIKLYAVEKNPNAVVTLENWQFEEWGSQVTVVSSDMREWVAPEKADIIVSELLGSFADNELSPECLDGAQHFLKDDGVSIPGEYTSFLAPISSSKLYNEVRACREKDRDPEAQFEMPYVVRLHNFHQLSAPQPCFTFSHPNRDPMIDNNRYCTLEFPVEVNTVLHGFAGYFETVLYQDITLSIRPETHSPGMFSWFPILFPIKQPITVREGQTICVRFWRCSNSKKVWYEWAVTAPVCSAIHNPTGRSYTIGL
Sequence of PRMT5/MEP50 complex (Q9BQA1 whole entry, further chain): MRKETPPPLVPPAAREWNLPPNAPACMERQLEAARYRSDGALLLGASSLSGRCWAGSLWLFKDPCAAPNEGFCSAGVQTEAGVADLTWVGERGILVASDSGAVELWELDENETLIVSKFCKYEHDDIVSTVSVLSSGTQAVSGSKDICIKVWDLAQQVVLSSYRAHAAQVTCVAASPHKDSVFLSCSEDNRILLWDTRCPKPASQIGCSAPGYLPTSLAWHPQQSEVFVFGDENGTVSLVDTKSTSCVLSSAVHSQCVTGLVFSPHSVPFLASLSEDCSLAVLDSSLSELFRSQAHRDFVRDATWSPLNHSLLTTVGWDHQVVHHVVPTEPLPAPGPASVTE

IC50: 75 nM
SMILES: O=C(OCC(O)CN1CCc2ccccc2C1)N1CCCC(c2ccccc2)C1 (stereo unspecified)
